Experimental data as given in patent US9724347B2, “1-pyrazolyl-3-(4-((2-anilinopyrimidin-4-yl)oxy)napththalen-1-yl) ureas as P38 MAP knase inhibitors” (Respivert Ltd., priority 2011, dated 2017).
pIC50: −log10 of the molar value. Marks after values point to notes of the source that are not given here.

Key:
[1] = molecular target: p38 MAPKα isoform (MAPK14) (Homo sapiens (Human), UniProt Q16539); test: p38 MAPKα enzyme inhibition (FRET, Z-LYTE); assay type: biochemical
[2] = molecular target: p38MAPKγ (MAPK12) (Homo sapiens (Human), UniProt P53778); test: p38 MAPKγ enzyme inhibition (FRET, Z-LYTE); assay type: biochemical
Chain of p38MAPKγ (MAPK12) (P53778 whole entry): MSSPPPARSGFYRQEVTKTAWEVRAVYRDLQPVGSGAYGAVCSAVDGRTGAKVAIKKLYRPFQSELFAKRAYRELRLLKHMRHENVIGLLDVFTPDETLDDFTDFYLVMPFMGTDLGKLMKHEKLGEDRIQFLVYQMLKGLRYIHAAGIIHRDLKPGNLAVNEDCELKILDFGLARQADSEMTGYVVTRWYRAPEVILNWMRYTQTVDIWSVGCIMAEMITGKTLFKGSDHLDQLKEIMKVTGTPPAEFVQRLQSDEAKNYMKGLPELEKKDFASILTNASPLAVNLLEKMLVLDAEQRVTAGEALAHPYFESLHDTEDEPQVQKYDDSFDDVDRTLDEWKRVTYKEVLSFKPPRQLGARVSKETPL
Method in brief: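 Z-LYTE FRET kinase format on donor/acceptor-labeled synthetic peptide; protease development 1 hr cleaves only non-phosphorylated peptide. Phosphorylation derived from coumarin/fluorescein emission ratio, low ratio indicating high phosphorylation.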

[3] = molecular target: GSK 3α enzyme isoform (Homo sapiens (Human), UniProt P49840); test: GSK 3α enzyme inhibition (FRET, Z-LYTE); assay type: biochemical; details: read-out: IC50 Values for Enzyme Inhibition GSK3α
Chain of GSK 3α enzyme isoform (P49840 whole entry, canonical isoform): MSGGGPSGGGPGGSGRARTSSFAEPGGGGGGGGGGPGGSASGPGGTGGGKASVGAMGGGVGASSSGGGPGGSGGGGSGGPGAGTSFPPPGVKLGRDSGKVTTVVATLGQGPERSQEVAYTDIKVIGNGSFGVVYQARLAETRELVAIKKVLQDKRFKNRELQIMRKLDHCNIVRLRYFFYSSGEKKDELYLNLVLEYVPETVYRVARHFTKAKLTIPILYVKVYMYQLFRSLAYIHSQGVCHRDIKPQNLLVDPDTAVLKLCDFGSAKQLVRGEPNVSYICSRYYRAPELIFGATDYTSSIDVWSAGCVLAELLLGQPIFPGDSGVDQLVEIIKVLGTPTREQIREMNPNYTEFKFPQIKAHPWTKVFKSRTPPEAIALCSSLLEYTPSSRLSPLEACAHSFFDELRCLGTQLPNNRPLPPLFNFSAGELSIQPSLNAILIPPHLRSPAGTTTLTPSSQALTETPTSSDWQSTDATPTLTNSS
Method in brief: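 Human GSK3α (500 ng/mL stock) was preincubated 2 h at RT with compound (stocks 4, 0.4, 0.04 or 0.004 μg/mL), then given FRET peptide (8 μM stock) and ATP (40 μM stock) for 1 h. After 1 h protease development, the coumarin/fluorescein emission ratio gave phosphorylation level.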

[4] = tested on: ICAM-1 expression in BEAS2B cells; test: Poly I:C-induced ICAM-1 expression in BEAS2B cells; assay type: cell-based, human; details: Homo sapiens, BEAS-2B, read-out: PolyIC/ICAM1 IC50 (BEAS2B)
Method in brief: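 BEAS2B human bronchial epithelial cells pre-incubated 2 h with compound, then transfected with 1 μg/mL poly I:C plus Oligofectamine. After 18 h, surface ICAM-1 measured by cell-based ELISA (OD450–655), normalised to crystal violet cell count (OD595). Inhibition calculated against vehicle control.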

[5] = tested on: HRV IL-8 release (BEAS2B); test: Rhinovirus-induced IL-8 release in BEAS2B cells; assay type: cell-based, human; details: at 0.04 μg/mL
Procedure: Human rhinovirus RV16 was obtained from the American Type Culture Collection (Manassas, Va.). Viral stocks were generated by infecting Hela cells with HRV until 80% of the cells were cytopathic.
BEAS2B cells were infected with HRV at an MOI of 5 and incubated for 2 hr at 33° C. with gentle shaking for to promote absorption. The cells were then washed with PBS, fresh media added and the cells were incubated for a further 72 hr. The supernatant was collected for assay of IL-8 concentrations using a Duoset ELISA development kit (R&D systems, Minneapolis, Minn.).
The level of cell surface ICAM-1 expression was determined by cell-based ELISA. At 72 hr after infection, cells were fixed with 4% formaldehyde in PBS. After quenching endogenous peroxidase by adding 0.1% sodium azide and 1% hydrogen peroxide, wells were washed with wash-buffer (0.05% Tween in PBS: PBS-Tween). […] The ICAM-1 signal was detected by adding substrate and reading at 450 nm with a reference wavelength of 655 nm using a spectrophotometer. The wells were then washed with PBS-Tween and total cell numbers in each well were determined by reading absorbance at 595 nm after Crystal Violet staining and elution by 1% SDS solution. The measured OD450-655 readings were corrected for cell number by dividing with the OD595 reading in each well. […]

[6] = tested on: HRV16; test: HRV16 induced CPE in MRC5 cells; assay type: cell-based, human rhinovirus
Procedure: The supernatants were aspirated, and then fresh media added followed by incubation for 4 days. Where appropriate, cells were pre-incubated with compound or DMSO for 2 hr, and the compounds and DMSO added again after washout of the virus.
The percentage inhibition for each well was calculated. The IC50 value was calculated from the concentration-response curve generated by the serial dilutions of the test compounds.

[7] = tested on: d-U937 cells; test: Cell viability: MTT assay; assay type: cell-based, human; details: 1 μg/mL
Method in brief: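 Differentiated U937 cells exposed to compound at 1 or 10 μg/mL final, either 4 h in 5% FCS RPMI1640 or 24 h in 10% FCS RPMI1640. After medium replacement, MTT added 1 h, formazan dissolved in DMSO, A550 read. % viability loss vs 0.5% DMSO vehicle; apparent viability gain shown as negative %.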

[8] = molecular target: GSK3α (Homo sapiens (Human), UniProt P49840); test: Kinase binding, active site-directed competition binding (DiscoverX)
Chain of GSK3α (P49840 whole entry): as the sequence (P49840 whole entry, canonical isoform) above

[9] = tested on: PBMC cells; test: Cell mitosis assay; assay type: cell-based, human
Procedure: Peripheral blood mononucleocytes (PBMCs) from healthy subjects were separated from whole blood (Quintiles, London, UK) using a density gradient (Histopaque®-1077, Sigma-Aldrich, Poole, UK). The PBMCs (3 million cells per sample) were subsequently treated with 2% PHA (Sigma-Aldrich, Poole, UK) for 48 hr, followed by a 20 hr exposure to varying concentrations of test compounds. At 2 hr before collection, PBMCs were treated with demecolcine (0.1 μg/mL; Invitrogen, Paisley, UK,) to arrest cells in metaphase. To observe mitotic cells, PBMCs were permeabilised and fixed by adding Intraprep (50 μL; Beckman Coulter, France), and stained with anti-phospho-histone 3 ([…]; #9701; Cell Signalling, Danvers, Mass.) and propidium iodide (1 mg/mL; Sigma-Aldrich, Poole, UK,) as previously described (Muehlbauer P. A. and Schuler M. J., Mutation Research, 2003, 537:117-130). Fluorescence was observed using an ATTUNE flow cytometer (Invitrogen, Paisley, UK), gating for lymphocytes.

[10] = tested on: Balb/c mice; test: LPS-induced neutrophil accumulation in mice; assay type: in vivo
Procedure: […] At T=0, mice were placed into an exposure chamber and exposed to LPS (7.0 mL, 0.5 mg/mL solution in PBS) for 30 min). After a further 8 hr the animals were anesthetized, their tracheas cannulated and BALF extracted by infusing and then withdrawing from their lungs 1.0 mL of PBS via the tracheal catheter. Total and differential white cell counts in the BALF samples were measured using a Neubaur haemocytometer. Cytospin smears of the BALF samples were prepared by centrifugation at 200 rpm for 5 min at RT and stained using a DiffQuik stain system (Dade Behring). Cells were counted using oil immersion microscopy. Data for neutrophil numbers in BAL are shown as mean±S.E.M. (standard error of the mean). The percentage inhibition of neutrophil accumulation was calculated for each treatment relative to vehicle treatment.

[11] = tested on: A/J mice; test: Cigarette smoke model; assay type: in vivo; details: for CXCL1 in BALF, % inhibition / Cell numbers in BALF, Macrophage / Cell numbers in BALF, Macrophage, % inhibition / Cell numbers in BALF, Neutrophil / Cell numbers in BALF, Neutrophil, % inhibition: tobacco smoke
Procedure: A/J mice (males, 5 weeks old) were exposed to cigarette smoke (4% cigarette smoke, diluted with air) for 30 min/day for 11 days using a Tobacco Smoke Inhalation Experiment System for small animals (Model SIS-CS; Sibata Scientific Technology, Tokyo, Japan). Test substances were administered intra-nasally (35 μL of solution in 50% DMSO/PBS) once daily for 3 days after the final cigarette smoke exposure. At 12 hr after the last dosing, each of the animals was anesthetized, the trachea cannulated and bronchoalveolar lavage fluid (BALF) was collected. The numbers of alveolar macrophages and neutrophils were determined by FACS analysis (EPICS® ALTRA II, Beckman Coulter, Inc., Fullerton, Calif., USA) using anti-mouse MOMA2 antibody (macrophage) or anti-mouse 7/4 antibody (neutrophil). BALF was centrifuged and the supernatant was collected. The level of keratinocyte chemoattractant (KC; CXCL1) in BALF was quantitated using a Quentikine® mouse KC ELISA kit (R&D systems, Inc., Minneapolis, Minn., USA).

Chain of p38 MAPKα isoform (MAPK14) (Q16539 whole entry, canonical isoform): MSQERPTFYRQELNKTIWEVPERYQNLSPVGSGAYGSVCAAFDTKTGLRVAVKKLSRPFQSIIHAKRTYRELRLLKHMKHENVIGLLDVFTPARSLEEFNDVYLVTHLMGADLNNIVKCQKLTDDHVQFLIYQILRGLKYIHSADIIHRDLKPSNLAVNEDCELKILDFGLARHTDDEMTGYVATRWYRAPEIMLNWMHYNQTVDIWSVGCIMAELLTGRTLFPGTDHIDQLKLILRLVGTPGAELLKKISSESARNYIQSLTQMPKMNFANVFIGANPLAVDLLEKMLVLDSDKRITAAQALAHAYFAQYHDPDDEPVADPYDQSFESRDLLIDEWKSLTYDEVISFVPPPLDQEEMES

Cc1ccc(-n2nc(C(C)(C)C)cc2NC(=O)Nc2ccc(Oc3ccnc(Nc4ccccc4Cl)n3)c3ccccc23)cc1 [Example 6, 1-(3-(tert-butyl)-1-(p-tolyl)-1H-pyrazol-5-yl)-3-(4-((2-((2-chlorophenyl)amino)pyrimidin-4-yl)oxy)naphthalen-1-yl)urea]
pIC50 [1]: 6.79
pIC50 [2]: < 4.79
pIC50 [3]: < 4.79
pIC50 [4]: 7.25
HRV IL-8 (BEAS2B) % inhibition [5]: 77%
HRV CPE (MRC5) % inhibition ([6]; at 0.04 μg/mL): 46%
MTT Assay Cell viability at time point in d-U937 Cells ([7]; 4 h): −ve (−ve and +ve indicate the value is below and above respectively, the no significant effect threshold defined as 30% inhibition at 1 μg/mL at the time point indicated)
MTT Assay Cell viability at time point in d-U937 Cells ([7]; 24 h): −ve (−ve and +ve indicate the value is below and above respectively, the no significant effect threshold defined as 30% inhibition at 1 μg/mL at the time point indicated)

Cc1ccc(-n2nc(C(C)(C)C)cc2NC(=O)Nc2ccc(Oc3ccnc(Nc4ccccc4)n3)c3ccccc23)cc1 [Example 1, 1-(3-(tert-Butyl)-1-(p-tolyl)-1H-pyrazol-5-yl)-3-(4-(2-(phenylamino)pyrimidin-4-yloxy)naphthalen-1-yl)urea]
inhibition of binding against GSK3α (in words) [8]: without significant effect
MTT Assay Cell viability at time point in d-U937 Cells ([7]; 4 h): −ve (−ve and +ve indicate the value is below and above respectively, the no significant effect threshold defined as 30% inhibition at 1 μg/mL at the time point indicated)
MTT Assay Cell viability at time point in d-U937 Cells ([7]; 24 h): −ve (−ve and +ve indicate the value is below and above respectively, the no significant effect threshold defined as 30% inhibition at 1 μg/mL at the time point indicated)
Mitosis Assay % inhibition in PBMC Cells ([9]; 1 μg/mL): 13.7%
Mitosis Assay % inhibition in PBMC Cells ([9]; 5 μg/mL): 31.3%
Neutrophil numbers in BALF, % inhibition ([10]; 0.05 mg/mL intra tracheal, pre-dose time 2 hr): 18%
Neutrophil numbers in BALF, % inhibition ([10]; 0.2 mg/mL intra tracheal, pre-dose time 2 hr): 48%
Neutrophil numbers in BALF, % inhibition ([10]; 1.0 mg/mL intra tracheal, pre-dose time 2 hr): 77%
Neutrophil numbers in BALF, % inhibition ([10]; 1.0 mg/mL intra tracheal, pre-dose time 8 hr): 48%
Neutrophil numbers in BALF, % inhibition ([10]; 1.0 mg/mL intra tracheal, pre-dose time 12 hr): 4%
effect on LPS-induced neutrophil accumulation (in words) ([10]; mice): dose dependent inhibition
duration of action ([10]; time course experiment, mice): long duration of action
CXCL1 in BALF, % inhibition ([11]; 0.32 μg/mL intra-nasal): 0%
Cell numbers in BALF, Macrophage ([11]; 0.32 μg/mL intra-nasal): 13.3 ± 0.20 ×10^4/mL
Cell numbers in BALF, Macrophage, % inhibition ([11]; 0.32 μg/mL intra-nasal): 11%
Cell numbers in BALF, Neutrophil ([11]; 0.32 μg/mL intra-nasal): 12.4 ± 0.32 ×10^4/mL
Cell numbers in BALF, Neutrophil, % inhibition ([11]; 0.32 μg/mL intra-nasal): 12%
CXCL1 in BALF, % inhibition ([11]; 1.6 μg/mL intra-nasal): 26%
Cell numbers in BALF, Macrophage ([11]; 1.6 μg/mL intra-nasal): 11.6 ± 0.42 ×10^4/mL
Cell numbers in BALF, Macrophage, % inhibition ([11]; 1.6 μg/mL intra-nasal): 28%
Cell numbers in BALF, Neutrophil ([11]; 1.6 μg/mL intra-nasal): 10.5 ± 0.06 ×10^4/mL
Cell numbers in BALF, Neutrophil, % inhibition ([11]; 1.6 μg/mL intra-nasal): 29%
CXCL1 in BALF, % inhibition ([11]; 8.0 μg/mL intra-nasal): 41%
Cell numbers in BALF, Macrophage ([11]; 8.0 μg/mL intra-nasal): 10.1 ± 0.42 ×10^4/mL
Cell numbers in BALF, Macrophage, % inhibition ([11]; 8.0 μg/mL intra-nasal): 43%
Cell numbers in BALF, Neutrophil ([11]; 8.0 μg/mL intra-nasal): 9.1 ± 0.28 ×10^4/mL
Cell numbers in BALF, Neutrophil, % inhibition ([11]; 8.0 μg/mL intra-nasal): 41%
CXCL1 in BALF, % inhibition ([11]; 40 μg/mL intra-nasal): 76%
Cell numbers in BALF, Macrophage ([11]; 40 μg/mL intra-nasal): 7.9 ± 0.20 ×10^4/mL
Cell numbers in BALF, Macrophage, % inhibition ([11]; 40 μg/mL intra-nasal): 64%
Cell numbers in BALF, Neutrophil ([11]; 40 μg/mL intra-nasal): 7.9 ± 0.34 ×10^4/mL
Cell numbers in BALF, Neutrophil, % inhibition ([11]; 40 μg/mL intra-nasal): 52%
cigarette smoke induced CXCL1 (KC) production in BALF (in words) ([11]; mice): inhibited
macrophage accumulation in BALF induced by cigarette smoke (in words) ([11]; mice): dose-dependent inhibition
neutrophil accumulation in BALF induced by cigarette smoke (in words) ([11]; mice): dose-dependent inhibition

COc1cc(Nc2nccc(Oc3ccc(NC(=O)Nc4cc(C(C)(C)C)nn4-c4ccc(C)cc4)c4ccccc34)n2)ccc1O [Example 25, 1-(3-(tert-butyl)-1-(p-tolyl)-1H-pyrazol-5-yl)-3-(4-((2-((4-hydroxy-3-methoxyphenyl)amino)pyrimidin-4-yl)oxy)naphthalen-1-yl)urea]
pIC50 [1]: 7.11
pIC50 [2]: 6.55
pIC50 [3]: < 5.80
pIC50 [4]: 8.60
HRV CPE (MRC5) % inhibition ([6]; tested at 0.0008 μg/mL, low cell viability at 0.04 μg/mL): 33%*
MTT Assay Cell viability at time point in d-U937 Cells ([7]; 4 h): −ve (−ve and +ve indicate the value is below and above respectively, the no significant effect threshold defined as 30% inhibition at 1 μg/mL at the time point indicated)
MTT Assay Cell viability at time point in d-U937 Cells ([7]; 24 h): −ve (−ve and +ve indicate the value is below and above respectively, the no significant effect threshold defined as 30% inhibition at 1 μg/mL at the time point indicated)
Mitosis Assay % inhibition in PBMC Cells ([9]; 1 μg/mL): 29.1%
Mitosis Assay % inhibition in PBMC Cells ([9]; 5 μg/mL): 63.5%
